Marks after values point to notes of the source that are not given here.
Legend:
[1] = system: SD rats; assay: Oral glucose tolerance test (OGTT) in rats; single injection; 1 mg/kg; assay type: in vivo; design: Change in AUC (mg/dL*min): unit not given here; settings: for Blood Glucose AUC (mg/dL*min) Mean / Change in AUC (mg/dL*min): OGTT, 1 mg/Kg; for reduction in blood glucose AUC: after 168 hrs of injection, 1 mg/kg
Procedure: (§1) Animals were divided into three groups—a normal control group, a test group and a third semaglutide group, with 4 animals in each group. The animals were fasted for 12 hours before initiation of OGTT. To the test group animals, the Compound 1 was injected subcutaneously at 1 mg/kg dose. To the semaglutide group, a dose of 1 mg/kg was injected subcutaneously. After 22 hrs, 166 hrs and 334 hrs of subcutaneous injection of test drug or semaglutide, blood glucose was measured with blood glucose meter (time 0 measurements). All the animals were then given 2 g/kg of glucose solution orally. Blood glucose was measured at 20, 40, 60, 90 and 120 minutes following glucose challenge. Body weight and food intake was recorded. Blood glucose data was analyzed using Two way ANOVA followed by Bonferroni posttests using PRISM (Graph Pad version 5.03). Data of Blood glucose AUC0-120 min, was analyzed using t test.
as §1, with “animals,” for “animals, the”, “1, Compound 13 and Compound 16 were” for “1 was”, “compound” for “drug”

[2] = Food intake and body weight recorded in the rat OGTT study; assay type: in vivo, rats; settings: 1 mg/Kg
Procedure: as §1
as §1, with “animals,” for “animals, the”, “1, Compound 13 and Compound 16 were” for “1 was”, “compound” for “drug”

[3] = system: db/db mice (diabetic mouse model); assay: Separate db/db diabetic mouse study, q2d*15 up to day 28, recovery period day 29 to day 45; assay type: in vivo; settings: for HbA1c, blood glucose, food consumption and body weight vs control: about 3 nM and 6 nM dose; for Blood Glucose AUC (Day 30-37) % Change vs Control / Blood Glucose AUC (Day 30-37) (mg/dL*days) Mean / Blood Glucose AUC (Day 38-45) % Change vs Control / Blood Glucose AUC (Day 38-45) (mg/dL*days) Mean: recovery period
Procedure: The study was performed in similar manner as above on diabetic mouse model. The animals were divided into three treatment groups—a diabetic control group, a test group and a semaglutide treatment group. The representative compounds of the present disclosure, Compound 1, Compound 13 and Compound 16, were injected subcutaneously at 3.04 or 6.078 nM dose (every alternate day up to day 28 (q2d*15). The same dosage regimen was administered in semaglutide treatment group. Measurements of blood glucose levels and body weight were done daily. % HbA1c, Insulin was measured on Day 0, day 14 and day 29. Cumulative food intake and body weight change was calculated on day 14 and 29. % HbA1c, Insulin data was analyzed by two way ANOVA followed by Bonferroni's posttests using PRISM (Graph Pad version 5.03). Whereas Blood Glucose AUC, Body weight change and Cumulative food intake data was analyzed by one way ANOVA followed by Bonferroni's posttests using PRISM (Graph Pad version 5.03). From day 29 to day 45, animals were kept on recovery period during which no drug treatment was given. Blood Glucose and Body weight was measured during this period. On day 45, Body weight Changes, % HbA1c, Insulin was measured.

[4] = earlier dose 3.04 nM (3.4 nM given for Compound 16)
[5] = recovery study, day 45, earlier dose 3.04 nM
[6] = recovery study, day 45, earlier dose 6.078 nM (6.0788 nM given for Compound 13)
[7] = recovery study, earlier dose 3.04 nM
[8] = recovery study, earlier dose 6.078 nM (6.0788 nM given for Compound 13)

## Compound 13: SEQ ID NO: 05, acylated with Moiety C (HXXXGTFTSDVSSYLXGQAAXEFXAWLVRGRGXX; lipidated side chain; (2)..(2) Xaa = Aib; (3)..(3) Xaa = absent.; (4)..(4) Xaa = Glu.; (16)..(16) Xaa = Glu.; (21)..(21) Lys is substituted; (24)..(24) Xaa is Ile.; (33)..(33) Xaa is Leu.; (34)..(34) Xaa is absent.)
[1]; 22 hr, Exp. 1
  Blood Glucose AUC (mg/dL*min) Mean: 2795.0 mg·min/dL
[1]; 22 hr, Exp. 1, vs control group
  Change in AUC (mg/dL*min): −81.2
[1]; 168 hr, Exp. 1
  Blood Glucose AUC (mg/dL*min) Mean: 6950.0 mg·min/dL
[1]; 168 hr, Exp. 1, vs control group
  Change in AUC (mg/dL*min): −59.5
[1]; 336 hr, Exp. 1
  Blood Glucose AUC (mg/dL*min) Mean: 11368.0 mg·min/dL
[1]; 336 hr, Exp. 1, vs control group
  Change in AUC (mg/dL*min): −31.6
[1]
  reduction in blood glucose AUC: about 60%
[2]; 48 h, Exp. 1
  Body Weight Change (%) Mean: −10.2%
  Food Consumption (g) Mean: 8.4 g
[2]; 154 h, Exp. 1
  Body Weight Change (%) Mean: 4.5%
  Food Consumption (g) Mean: 62.3 g
[2]; 324 h, Exp. 1
  Body Weight Change (%) Mean: 8.2%
  Food Consumption (g) Mean: 82.44 g
[2]; text on Table 8
  food consumed vs animals administered with semaglutide: consumed significantly less food
[3]; 3.04 nM, q2d*15
  Blood Glucose AUC (Day 0-29) % Change Vs Control: −43.86%
  Blood Glucose AUC (Day 0-29) (mg/dL*days) Mean: 9515.4*** mg/dL*days
  Body Weight Change Day 29, % Change vs Day 0 Mean: 1.2%
  Cumulative Food Intake (g) Day 0-29 Mean: 75.2 g
[3]; 6.078 nM, q2d*15
  Blood Glucose AUC (Day 0-29) % Change Vs Control: −50.13%
  Blood Glucose AUC (Day 0-29) (mg/dL*days) Mean: 8451.7***## mg/dL*days
  Body Weight Change Day 29, % Change vs Day 0 Mean: −1.1%
  Cumulative Food Intake (g) Day 0-29 Mean: 70.4 g
[3]; Day 0, 3.04 nM, q2d*15
  % HbA1C Mean: 7.7%
  Insulin (ng/mL) Mean: 21.7 ng/mL
[3]; Day 0, 6.078 nM, q2d*15
  % HbA1C Mean: 7.83%
  Insulin (ng/mL) Mean: 26.2 ng/mL
[3]; Day 14, 3.04 nM, q2d*15
  % HbA1C Mean: 6.6* %
  Insulin (ng/mL) Mean: 41.8 ng/mL
[3]; Day 14, 6.078 nM, q2d*15
  % HbA1C Mean: 6.00 *** %
  Insulin (ng/mL) Mean: 61.2*** ng/mL
[3]; Day 29, 3.04 nM, q2d*15
  % HbA1C Mean: 6.4 *** %
  Insulin (ng/mL) Mean: 54.4** ng/mL
[3]; Day 29, 6.078 nM, q2d*15
  % HbA1C Mean: 5.64 *** %
  Insulin (ng/mL) Mean: 59.4*** ng/mL
[3]
  HbA1c, blood glucose, food consumption and body weight vs control: significant reduction
[3]; [4]
  Blood Glucose AUC (Day 30-37) % Change vs Control: −27.93%
  Blood Glucose AUC (Day 30-37) (mg/dL*days) Mean: 2588.7** mg/dL*days
  Blood Glucose AUC (Day 38-45) % Change vs Control: −5.57%
  Blood Glucose AUC (Day 38-45) (mg/dL*days) Mean: 3401.0 mg·days/dL
[3]; earlier dose 6.078 nM
  Blood Glucose AUC (Day 30-37) % Change vs Control: −19.94%
  Blood Glucose AUC (Day 30-37) (mg/dL*days) Mean: 2875.7 mg·days/dL
  Blood Glucose AUC (Day 38-45) % Change vs Control: −6.68%
  Blood Glucose AUC (Day 38-45) (mg/dL*days) Mean: 3361.0 mg·days/dL
[3]; [5]
  % HbA1C Mean: 7.5%
  Delta HbA1C vs. DC: −1.0
  Insulin (ng/mL) Mean: 31.2 ng/mL
[3]; [6]
  % HbA1C Mean: 7.3%
  Delta HbA1C vs. DC: −1.2
  Insulin (ng/mL) Mean: 34.3 ng/mL
[3]; [7]
  Body Weight % Change vs Day 45 Mean: 6.6%
[3]; [8]
  Body Weight % Change vs Day 45 Mean: 5.5%

## Compound 16: SEQ ID NO: 05, acylated with Moiety D (HXXXGTFTSDVSSYLXGQAAXEFXAWLVRGRGXX; lipidated side chain; (2)..(2) Xaa = Aib; (3)..(3) Xaa = absent.; (4)..(4) Xaa = Glu.; (16)..(16) Xaa = Glu.; (21)..(21) Lys is substituted; (24)..(24) Xaa is Ile.; (33)..(33) Xaa is Leu.; (34)..(34) Xaa is absent.)
[1]; 22 hr, Exp. 2
  Blood Glucose AUC (mg/dL*min) Mean: 1646 mg·min/dL
[1]; 22 hr, Exp. 2, vs control group
  Change in AUC (mg/dL*min): −80.7
[1]; 168 hr, Exp. 2
  Blood Glucose AUC (mg/dL*min) Mean: 4283 mg·min/dL
[1]; 168 hr, Exp. 2, vs control group
  Change in AUC (mg/dL*min): −57.6
[1]; 336 hr, Exp. 2
  Blood Glucose AUC (mg/dL*min) Mean: 8295.0 mg·min/dL
[1]; 336 hr, Exp. 2, vs control group
  Change in AUC (mg/dL*min): −2.3
[1]
  reduction in blood glucose AUC: about 60%
[2]; 48 h, Exp. 2
  Body Weight Change (%) Mean: −10.7%
  Food Consumption (g) Mean: 5.9 g
[2]; 154 h, Exp. 2
  Body Weight Change (%) Mean: −7.0%
[2]; 324 h, Exp. 2
  Body Weight Change (%) Mean: −4.3%
  Food Consumption (g) Mean: 104.3 g
[2]; text on Table 8
  food consumed vs animals administered with semaglutide: consumed significantly less food
  lowering of body weight: substantial lowering of body weight
[3]; 3.04 nM, q2d*15
  Blood Glucose AUC (Day 0-29) % Change Vs Control: −44.54%
  Blood Glucose AUC (Day 0-29) (mg/dL*days) Mean: 9399.0*** mg/dL*days
  Body Weight Change Day 29, % Change vs Day 0 Mean: −1.4%
  Cumulative Food Intake (g) Day 0-29 Mean: 77.4 g
[3]; 6.078 nM, q2d*15
  Blood Glucose AUC (Day 0-29) % Change Vs Control: −52.29%
  Blood Glucose AUC (Day 0-29) (mg/dL*days) Mean: 8086.1***## mg/dL*days
  Body Weight Change Day 29, % Change vs Day 0 Mean: −5.5%
  Cumulative Food Intake (g) Day 0-29 Mean: 66.7 g
[3]; Day 0, 3.04 nM, q2d*15
  % HbA1C Mean: 7.74%
  Insulin (ng/mL) Mean: 13.9 ng/mL
[3]; Day 0, 6.078 nM, q2d*15
  % HbA1C Mean: 7.83%
  Insulin (ng/mL) Mean: 21.8 ng/mL
[3]; Day 14, 3.04 nM, q2d*15
  % HbA1C Mean: 5.67 ***# %
  Insulin (ng/mL) Mean: 50.8* ng/mL
[3]; Day 14, 6.078 nM, q2d*15
  % HbA1C Mean: 5.64 ***# %
  Insulin (ng/mL) Mean: 58.1** ng/mL
[3]; Day 29, 3.04 nM, q2d*15
  % HbA1C Mean: 5.33 ***# %
  Insulin (ng/mL) Mean: 53.8** ng/mL
[3]; Day 29, 6.078 nM, q2d*15
  % HbA1C Mean: 5.16 ***# %
  Insulin (ng/mL) Mean: 68.2*** ng/mL
[3]
  HbA1c, blood glucose, food consumption and body weight vs control: significant reduction
[3]; [4]
  Blood Glucose AUC (Day 30-37) % Change vs Control: −32.62%
  Blood Glucose AUC (Day 30-37) (mg/dL*days) Mean: 2420.0** mg/dL*days
  Blood Glucose AUC (Day 38-45) % Change vs Control: −8.82%
  Blood Glucose AUC (Day 38-45) (mg/dL*days) Mean: 3284.0* mg/dL*days
[3]; earlier dose 6.078 nM
  Blood Glucose AUC (Day 30-37) % Change vs Control: −39.65%
  Blood Glucose AUC (Day 30-37) (mg/dL*days) Mean: 2167.7*** mg/dL*days
  Blood Glucose AUC (Day 38-45) % Change vs Control: −12.97%
  Blood Glucose AUC (Day 38-45) (mg/dL*days) Mean: 3134.7** mg/dL*days
[3]; [5]
  % HbA1C Mean: 7.1* %
  Delta HbA1C vs. DC: −1.4
  Insulin (ng/mL) Mean: 15.5 ng/mL
[3]; [6]
  % HbA1C Mean: 7.2* %
  Delta HbA1C vs. DC: −1.3
  Insulin (ng/mL) Mean: 18.4 ng/mL
[3]; [7]
  Body Weight % Change vs Day 45 Mean: 6.1%
[3]; [8]
  Body Weight % Change vs Day 45 Mean: 5.7%

Source: patent US11447535B2, “GLP-1 analogues” (Sun Pharmaceutical Industries Limited, priority 2018, dated 2022)
